According to patent US20150197492A1, “NOVEL INDENO[1,2-c]QUINOLIN-11-ONE DERIVATIVES, PREPARATION METHOD AND APPLICATION THEREOF” (National Defense Medical Center, priority 2014, published 2015):

Key:
Format in all cases: cell-based
SF-539 = experiment: cells
HCT-15 = experiment: cells
KM12 = experiment: cells
SN12C = experiment: cells
HOP-62 = experiment: cells
SNB-19 = experiment: cells
M14 = experiment: cells
NCI/ADR-RES = experiment: cells
OVCAR-5 = experiment: cells
RXF 393 = experiment: cells
CCRF-CEM = experiment: cells
human PC-3 cells = experiment: Sulforhodamine B (SRB) assay, cytotoxicity against PC-3 cells; conditions: SRB assay, PC-3 cells
How it was run: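 PC-3 cells in 5% FBS were fixed with 10% TCA after 24 h as T0, then treated with compound for 48 h, fixed, stained with 0.4% SRB in 1% acetic acid and solubilized in 10 mmol/L Trizma base. Absorbance was read at 515 nm. GI% = 100−[(Tx−T0)/(C−T0)]×100, and IC50 is the concentration halving total protein.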

DU-145 = experiment: cells
T-47D = experiment: cells
UACC-257 = experiment: cells
SK-MEL-5 = experiment: cells
NCI-H522 = experiment: cells
CAKI-1 = experiment: cells
MALME-3M = experiment: cells
UO-31 = experiment: cells
786-0 = experiment: cells
[1] = tested on: 55 to 60 cancer cell lines; conditions: 10 μM
SK-MEL-2 = experiment: cells; conditions: Melanoma SK-MEL-2
OVCAR-8 = experiment: cells
ACHN = experiment: cells
SF-295 = experiment: cells
NCI-H226 = experiment: cells
MCF7 = experiment: cells
[2] = Homo sapiens, CNS Cancer SF-539
[3] = Homo sapiens, Non-Small Cell Lung Cancer HOP-62
[4] = Homo sapiens, CNS Cancer SNB-19
[5] = Homo sapiens, Melanoma MALME-3M
[6] = Homo sapiens, CNS Cancer SF-295

O=C1c2cc(Cl)ccc2-c2c(N3CCNCC3)nc3ccccc3c21 [SJ-10, 9-Chloro-6-(piperazin-1-yl)-11H-indeno[1,2-c]quinolin-11-one]
TGI (SF-539; CNS Cancer SF-539): >100 µM | GI50 (SF-539; [2]): 14.2 µM | LC50 (concentration giving 50% net cell kill) (SF-539; [2]): > 100 µM | growth percentage (SF-539; SF-539 (CNS Cancer), 10 μM, 48 hours): 36.91% | TGI (HCT-15; Colon Cancer HCT-15): >100 µM | growth percentage (HCT-15; HCT-15 (Colon Cancer), 10 μM, 48 hours): -78.92% | GI50 (HCT-15; Homo sapiens, Colon Cancer HCT-15): 4.34 µM | CC50 (HCT-15; Homo sapiens, Colon Cancer HCT-15, read-out: LC50 (the source's name)): > 100 µM | TGI (KM12; Colon Cancer KM12): >100 µM | GI50 (KM12; Homo sapiens, Colon Cancer KM12): 2.5 µM | CC50 (KM12; Homo sapiens, Colon Cancer KM12, read-out: LC50 (the source's name)): > 100 µM | growth percentage (KM12; KM12 (Colon Cancer), 10 μM, 48 hours): -47.09% | GI50 (SN12C; Homo sapiens, Renal Cancer SN12C): 5.42 µM | CC50 (SN12C; Homo sapiens, Renal Cancer SN12C, read-out: LC50 (the source's name)): > 100 µM | TGI (SN12C; Renal Cancer SN12C): >100 µM | growth percentage (SN12C; SN12C (Renal Cancer), 10 μM, 48 hours): 15.89% | growth percentage (HOP-62; HOP-62 (Non-Small Cell Lung Cancer), 10 μM, 48 hours): -61.80% | GI50 (HOP-62; [3]): 12.3 µM | LC50 (50% lethal concentration) (HOP-62; [3]): > 100 µM | TGI (HOP-62; Non-Small Cell Lung Cancer HOP-62): >100 µM | TGI (SNB-19; CNS Cancer SNB-19): >100 µM | GI50 (SNB-19; [4]): 8.27 µM | LC50 (SNB-19; [4]): > 100 µM | growth percentage (SNB-19; SNB-19 (CNS Cancer), 10 μM, 48 hours): 67.25% | GI50 (M14; Homo sapiens, Melanoma M14): 7.49 µM | CC50 (M14; Homo sapiens, Melanoma M14, read-out: LC50 (the source's name)): > 100 µM | growth percentage (M14; M14 (Melanoma), 10 μM, 48 hours): -56.24% | TGI (M14; Melanoma M14): >100 µM | GI50 (NCI/ADR-RES; Homo sapiens, Ovarian Cancer NCI/ADR-RES): 22.5 µM | CC50 (NCI/ADR-RES; Homo sapiens, Ovarian Cancer NCI/ADR-RES, read-out: LC50 (the source's name)): > 100 µM | growth percentage (NCI/ADR-RES; NCI/ADR-RES (Ovarian Cancer), 10 μM, 48 hours): -4.00% | TGI (NCI/ADR-RES; Ovarian Cancer NCI/ADR-RES): >100 µM | GI50 (OVCAR-5; Homo sapiens, Ovarian Cancer OVCAR-5): 34.5 µM | CC50 (OVCAR-5; Homo sapiens, Ovarian Cancer OVCAR-5, read-out: LC50 (the source's name)): > 100 µM | growth percentage (OVCAR-5; OVCAR-5 (Ovarian Cancer), 10 μM, 48 hours): 39.14% | TGI (OVCAR-5; Ovarian Cancer OVCAR-5): >100 µM | GI50 (RXF 393; Homo sapiens, Renal Cancer RXF 393): 4.55 µM | CC50 (RXF 393; Homo sapiens, Renal Cancer RXF 393, read-out: LC50 (the source's name)): > 100 µM | growth percentage (RXF 393; RXF 393 (Renal Cancer), 10 μM, 48 hours): 20.51% | TGI (RXF 393; Renal Cancer RXF 393): >100 µM | growth percentage (CCRF-CEM; CCRF-CEM (Leukemia), 10 μM, 48 hours): -35.45% | GI50 (CCRF-CEM; Homo sapiens, Leukemia CCRF-CEM): 6.32 µM | CC50 (CCRF-CEM; Homo sapiens, Leukemia CCRF-CEM, read-out: LC50 (the source's name)): > 100 µM | TGI (CCRF-CEM; Leukemia CCRF-CEM): >100 µM | Toxicity (%) (human PC-3 cells): 47.2% | GI % (10 μM) (human PC-3 cells; 10 μM): 100% | growth percentage (DU-145; DU-145 (Prostate Cancer), 10 μM, 48 hours): -41.83% | GI50 (DU-145; Homo sapiens, Prostate Cancer DU-145): 4.79 µM | CC50 (DU-145; Homo sapiens, Prostate Cancer DU-145, read-out: LC50 (the source's name)): > 100 µM | TGI (DU-145; Prostate Cancer DU-145): >100 µM | TGI (T-47D; Breast Cancer T-47D): >100 µM | GI50 (T-47D; Homo sapiens, T47D, Breast Cancer T-47D): 8.44 µM | CC50 (T-47D; Homo sapiens, T47D, Breast Cancer T-47D, read-out: LC50 (the source's name)): > 100 µM | growth percentage (T-47D; T-47D (Breast Cancer), 10 μM, 48 hours): -31.54% | GI50 (UACC-257; Homo sapiens, Melanoma UACC-257): 35.1 µM | CC50 (UACC-257; Homo sapiens, Melanoma UACC-257, read-out: LC50 (the source's name)): > 100 µM | TGI (UACC-257; Melanoma UACC-257): >100 µM | growth percentage (UACC-257; UACC-257 (Melanoma), 10 μM, 48 hours): -39.24% | GI50 (SK-MEL-5; Homo sapiens, Melanoma SK-MEL-5): 4.1 µM | CC50 (SK-MEL-5; Homo sapiens, Melanoma SK-MEL-5, read-out: LC50 (the source's name)): > 100 µM | TGI (SK-MEL-5; Melanoma SK-MEL-5): >100 µM | growth percentage (SK-MEL-5; SK-MEL-5 (Melanoma), 10 μM, 48 hours): 59.18% | GI50 (NCI-H522; Homo sapiens, Non-Small Cell Lung Cancer NCI-H522): 3.98 µM | CC50 (NCI-H522; Homo sapiens, Non-Small Cell Lung Cancer NCI-H522, read-out: LC50 (the source's name)): > 100 µM | growth percentage (NCI-H522; NCI-H522 (Non-Small Cell Lung Cancer), 10 μM, 48 hours): 18.08% | TGI (NCI-H522; Non-Small Cell Lung Cancer NCI-H522): >100 µM | growth percentage (CAKI-1; CAKI-1 (Renal Cancer), 10 μM, 48 hours): 17.84% | GI50 (CAKI-1; Homo sapiens, Renal Cancer CAKI-1): 2.52 µM | CC50 (CAKI-1; Homo sapiens, Renal Cancer CAKI-1, read-out: LC50 (the source's name)): > 100 µM | TGI (CAKI-1; Renal Cancer CAKI-1): >100 µM | GI50 (MALME-3M; [5]): 8.87 µM | LC50 (concentration killing 50% of cells) (MALME-3M; [5]): > 100 µM | growth percentage (MALME-3M; MALME-3M (Melanoma), 10 μM, 48 hours): -32.28% | TGI (MALME-3M; Melanoma MALME-3M): >100 µM | GI50 (UO-31; Homo sapiens, Renal Cancer UO-31): 2.83 µM | CC50 (UO-31; Homo sapiens, Renal Cancer UO-31, read-out: LC50 (the source's name)): > 100 µM | TGI (UO-31; Renal Cancer UO-31): >100 µM | growth percentage (UO-31; UO-31 (Renal Cancer), 10 μM, 48 hours): -40.61% | growth percentage (786-0; 786-0 (Renal Cancer), 10 μM, 48 hours): 25.31% | GI50 (786-0; Homo sapiens, 786-0, Renal Cancer 786-O): 23.5 µM | CC50 (786-0; Homo sapiens, 786-0, Renal Cancer 786-O, read-out: LC50 (the source's name)): > 100 µM | TGI (786-0; Renal Cancer 786-O): >100 µM | inhibition effect in different cancer cell lines (summary of the NCI data, in words) ([1]; 48 hours): preferable inhibition effects in leukemia and colon cancer cells | Mean (mean growth percentage of the tested cancer cell lines) ([1]; 48 hours, all tested cell lines): −14.37% | cytotoxicity in the first stage (in words) ([1]; basis for selection for the five-dose test): potential cytotoxicity | GI50 (SK-MEL-2; Homo sapiens): 7.36 µM | CC50 (SK-MEL-2; Homo sapiens, read-out: LC50 (the source's name)): > 100 µM | TGI (SK-MEL-2): >100 µM | GI50 (OVCAR-8; Homo sapiens, Ovarian Cancer OVCAR-8): 8.66 µM | CC50 (OVCAR-8; Homo sapiens, Ovarian Cancer OVCAR-8, read-out: LC50 (the source's name)): > 100 µM | growth percentage (OVCAR-8; OVCAR-8 (Ovarian Cancer), 10 μM, 48 hours): -46.09% | TGI (OVCAR-8; Ovarian Cancer OVCAR-8): >100 µM | growth percentage (ACHN; ACHN (Renal Cancer), 10 μM, 48 hours): -83.29% | GI50 (ACHN; Homo sapiens, Renal Cancer ACHN): 3.14 µM | CC50 (ACHN; Homo sapiens, Renal Cancer ACHN, read-out: LC50 (the source's name)): > 100 µM | TGI (ACHN; Renal Cancer ACHN): >100 µM | TGI (SF-295; CNS Cancer SF-295): >100 µM | GI50 (SF-295; [6]): 7.79 µM | LC50 (concentration killing 50% of cells) (SF-295; [6]): > 100 µM | growth percentage (SF-295; SF-295 (CNS Cancer), 10 μM, 48 hours): 23.75% | GI50 (NCI-H226; Homo sapiens, Non-Small Cell Lung Cancer NCI-H226): 7.77 µM | CC50 (NCI-H226; Homo sapiens, Non-Small Cell Lung Cancer NCI-H226, read-out: LC50 (the source's name)): > 100 µM | growth percentage (NCI-H226; NCI-H226 (Non-Small Cell Lung Cancer), 10 μM, 48 hours): 49.94% | TGI (NCI-H226; Non-Small Cell Lung Cancer NCI-H226): >100 µM | TGI (MCF7; Breast Cancer MCF7): >100 µM | GI50 (MCF7; Homo sapiens, Breast Cancer MCF7): 5.42 µM | CC50 (MCF7; Homo sapiens, Breast Cancer MCF7, read-out: LC50 (the source's name)): > 100 µM | growth percentage (MCF7; MCF7 (Breast Cancer), 10 μM, 48 hours): -100.00%
